From patent publication US10206388B2, “Formulation component” (SYNGENTA LIMITED, priority 2011, dated 2019)

Legend:
Assay type in all cases: in vivo
[1] = system: Brachiaria platyphylla (BRAPL); test: Glasshouse weed test, mesotrione with adjuvants; settings: Table 10, Example 7: mesotrione 60 or 120 g/ha; adjuvant 0.2% v/v; Tetronic 1107 in spray tank; mean over two rates, three replicates, 7, 14 and 20 days
Procedure: (§1) The aromatic ester Finsolv® TN (C12-C15 alkyl benzoate) was tested in a glasshouse against three weed species using the herbicide mesotrione. An agrochemical composition was prepared containing 0.2% v/v of the adjuvant in a track sprayer and was applied at a volume of 200 liters per hectare. Mesotrione was applied at either 60 or 120 grams of pesticide per hectare on weeds which had been grown to the 1.3 or 1.4 leaf stage. The weed species were Xanthium strumarium (XANST), Brachiaria platyphylla (BRAPL), and Digitaria sanguinalis (DIGSA). The commercially available surfactant Tetronic® 1107 was used in the spray tank at a concentration of 0.036 g/l alongside the lower concentration of mesotrione and at a concentration of 0.072 g/l at the higher concentration of mesotrione.
(§2) Each spray test was replicated three times. The efficacy of the herbicide was assessed visually and expressed as a percentage of the leaf area killed. Samples were assessed at time periods of 7, 14 and 20 days following application. The results shown in Table 10 below are mean averages over the two rates of mesotrione, three replicates and the three assessment timings, and are compared to the efficacy of mesotrione in the absence of adjuvant and mesotrione in the presence of the well-known adjuvant Tween® 20.

[2] = system: Digitaria sanguinalis (DIGSA); test: Glasshouse weed test, mesotrione with adjuvants; settings: Table 10, Example 7: mesotrione 60 or 120 g/ha; adjuvant 0.2% v/v; Tetronic 1107 in spray tank; mean over two rates, three replicates, 7, 14 and 20 days
Procedure: as §1, §2

[3] = system: Xanthium strumarium (XANST); test: Glasshouse weed test, mesotrione with adjuvants; settings: Table 10, Example 7: mesotrione 60 or 120 g/ha; adjuvant 0.2% v/v; Tetronic 1107 in spray tank; mean over two rates, three replicates, 7, 14 and 20 days
Procedure: as §1, §2

[4] = system: three weed species (XANST, BRAPL, DIGSA); test: Glasshouse weed test, mesotrione with adjuvants, mean across species; settings: mean over two rates
Procedure: as §1, §2
A second experiment was conducted to assess the efficacy of Finsolv® TN as an adjuvant in compositions of mesotrione. This was carried out as outlined above, with the following change: samples were assessed at 6, 14 and 20 days post application.
The results shown in Table 11 below are mean averages over the two rates of mesotrione, three replicates, the three assessment timings, and the three weed species, and are compared to the efficacy of mesotrione in the absence of adjuvant and mesotrione in the presence of the well-known adjuvant Tween® 20.
as §1, with “An” for “The aromatic ester Finsolv® TN (C12-C15 alkyl benzoate) was tested in a glasshouse against three weed species using the herbicide mesotrione. An”
as §2, with “Brij®96. The results shown in Table 16 below are mean averages over the two rates of mesotrione, three replicates, three assessment timings and three weed species. The results are compared to the efficacy of mesotrione in the absence of an adjuvant and mesotrione in the presence of the commercially available adjuvant Brij®96.” for “Tween® 20.”
An agrochemical composition was prepared containing 0.2% v/v of the adjuvant in a track sprayer and was applied at a volume of 200 liters per hectare. The adjuvant oils were emulsified using a small amount of the surfactant Pluronic® PE 10500, which was present in the composition at a concentration of 0.02% v/v. Mesotrione was applied at either 60 or 120 grams of pesticide per hectare on weeds which had been grown to the 1.3 or 1.4 leaf stage. The weed species were Xanthium strumarium (XANST), Brachiaria platyphylla (BRAPL), and Digitaria sanguinalis (DIGSA). […]

[5] = system: four weed species (POLCO, BRAPL, COMBE, DIGSA); test: Glasshouse weed test, mesotrione with adjuvants at several rates, mean across species; settings: Table 25, Example 21: absence of adjuvant, mesotrione 60 or 120 g/ha, Tetronic 1107, mean over two rates, three replicates, 14 and 21 days
Procedure: An agrochemical composition was prepared containing either 0.2, 0.1, 0.05 or 0.025% v/v of the adjuvant in a track sprayer and was applied at a volume of 200 liters per hectare. The commercial adjuvant Tween20® was applied at 0.2% v/v. Mesotrione was applied at either 60 or 120 grams of pesticide per hectare on weeds which had been grown to the 1.3 or 1.4 leaf stage. The commercially available surfactant Tetronic® 1107 was used in the spray tank at a concentration of 0.036 g/l alongside the lower concentration of mesotrione and at a concentration of 0.072 g/l at the higher concentration of mesotrione. The weed species were Polygonum convolvulus (POLCO) 13, Brachiaria platyphylla (BRAPL) 12-13, Comelina berghalensis (COMBE) 12 and Digitaria sanguinalis (DIGSA) 13.
Each spray test was replicated three times. The efficacy of the herbicide was assessed visually and expressed as a percentage of the leaf area killed. Samples were assessed at time periods of 14 and 21 days following application. The results shown in Table 25 below are mean averages over the two rates of mesotrione, three replicates, four weed species and the two assessment timings. The adjuvants are compared to the efficacy of mesotrione in the absence of adjuvant and mesotrione in the presence of the well-known adjuvant Tween®20.

## CS(=O)(=O)c1ccc(C(=O)C2C(=O)CCCC2=O)c([N+](=O)[O-])c1 [Mesotrione, mesotrione]
[1]
  Mean percentage kill BRAPL: 5.3 B %
[2]
  Mean percentage kill DIGSA: 20.0 B %
[3]
  Mean percentage kill XANST: 36.7 A %
[4]; Table 10, Example 7: mesotrione 60 or 120 g/ha, adjuvant 0.2% v/v, Tetronic 1107 in spray tank, three replicates, 7, 14 and 20 days
  Mean percentage kill, Mean across species: 19.9 B %
[4]; Table 11, Example 7 second experiment: mesotrione 60 or 120 g/ha, adjuvant 0.2% v/v, three replicates, 6, 14 and 20 days, three weed species
  Mean percentage kill, Mean across species: 33.0 B %
[4]; Table 16, Example 12: mesotrione 60 or 120 g/ha, adjuvant 0.2% v/v, Tetronic 1107 in spray tank, three replicates, 7, 14 and 20 days, three weed species
  Mean percentage kill, Mean across species: 18.0 C %
[4]; Table 21, Example 17: mesotrione 60 or 120 g/ha, adjuvant 0.2% v/v emulsified with Pluronic PE 10500 0.02% v/v, Tetronic 1107, three replicates, 14 and 21 days, three weed species
  Mean percentage kill, Mean across species: 19.9C %
[4]; Table 29, Example 26: mesotrione 60 or 120 g/ha, adjuvant 0.2% v/v, Tetronic 1107, three replicates, 14 and 21 days, three weed species
  Mean percentage kill, Mean across species: 39.4C %
[4]; Table 35, Example 35: mesotrione 60 or 120 g/ha, adjuvant 0.2% v/v, Tetronic 1107, three replicates, 14 and 21 days, three weed species
  Mean percentage kill, Mean across species: 33.8B %
[5]
  Mean percentage kill, Mean across species: 33.7D %
